Test results reported in PubChem BioAssay (NCI).
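Test compounds were applied to cells in 96-well plates for 48 hours at 5 doses. Here, GI50 denotes the concentration required for 50% inhibition of growth. Definition used: TGI = concentration required for complete inhibition of growth.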

How the values were obtained:
Test in all cases: NCI-60 cell line screen, 48 h
[1] = system: COLO 205 colon
[2] = system: HCT-116 colon
[3] = system: HL-60(TB) leukemia
[4] = system: MDA-MB-231 breast
[5] = system: NCI/ADR-RES ovarian
[6] = system: SF-539 CNS
[7] = system: SN12C renal
[8] = system: SNB-75 CNS
[9] = system: TK-10 renal
[10] = system: U251 CNS

| SMILES | GI50 [1] [µM] | TGI [1] [µM] | GI50 [2] [µM] | TGI [2] [µM] | GI50 [3] [µM] | TGI [3] [µM] | GI50 [4] [µM] | TGI [4] [µM] | GI50 [5] [µM] | TGI [5] [µM] | GI50 [6] [µM] | TGI [6] [µM] | GI50 [7] [µM] | TGI [7] [µM] | GI50 [8] [µM] | TGI [8] [µM] | GI50 [9] [µM] | TGI [9] [µM] | GI50 [10] [µM] | TGI [10] [µM] |
| --- | --- | --- | --- | --- | --- | --- | --- | --- | --- | --- | --- | --- | --- | --- | --- | --- | --- | --- | --- | --- |
| C=C(C)[C@@H]1CC[C@]2(C)[C@H](C(=O)C=C3[C@@H]4C[C@](C)(C(=O)N5CCN(C)CC5)CC[C@]4(C)CC[C@]32C)[C@@]1(C)CCC#N | 5.78 | 13.4 | 3.03 | 9.33 | 4.19 | 11.8 | 7.58 | 14.6 | 6.83 | 13.9 | 6.3 | 12.7 | 6.37 | 12.9 | 7.52 | 15.8 | 8.16 | 15.5 | 6.05 | 12.7 |
| CC(C)CCOc1ccc(-c2n[nH]c(C(F)(F)F)c2-c2cncc(C#N)c2)c(O)c1 | 1.68 | 3.14 | 2.61 | 10.5 | 1.98 | 5.47 | 2.43 | 6.43 | 2.2 | 7.35 | 2.8 | 16.7 | 2.34 | 15.9 | 2.77 | 14.6 | 3.15 | 14.1 | 2 | 8.4 |
| COc1ccc(Nn2c(SCC(=O)Nc3nc(-c4ccc(Cl)cc4)cs3)nc(C)c2C)cc1 | 1.94 | 3.55 | 2.12 | 14.1 | 2.24 | 59.1 | 8.37 | > 100 | 2.89 | > 100 | 4.15 | > 100 | 2.3 | 7.52 | 4.8 | > 100 | 14.8 | 80.9 | 4.03 | > 100 |
| CCNCC(=O)O[C@]1(CC)C(=O)OCc2c1cc1n(c2=O)Cc2cc3ccccc3nc2-1 |  | 16.5 |  | 3.29 |  | 0.849 |  | 98 |  | 1.39 |  | 0.574 |  | 11.2 |  | 7.91 |  | 99 |  | 6.61 |
| CCCCCC(O)C1C(=O)OC(C)C(O)/C=C/C=C/C=C/C=C\C=C(\C)C(O)CC(O)CC(O)CC(O)CC(O)CC(O)CC1O (stereo unspecified) | > 100 | > 100 | > 100 | > 100 | > 100 | > 100 | > 100 | > 100 | > 100 | > 100 | > 100 | > 100 | > 100 | > 100 | > 100 | > 100 | > 100 | > 100 | > 100 | > 100 |
| COc1ccc(-c2ccc(/C=N/n3c(COc4ccccc4Cl)nn(CN4CCN(C)CC4)c3=S)o2)c([N+](=O)[O-])c1 | 24.4 | 60.3 | 16.1 | 29.8 | 32.8 | 65.7 | 14.6 | 37.5 | 18.5 | 41.6 | 19.7 | 39.2 | 17.9 | 35.2 | 20.3 | 77.3 | 12.9 | 45.4 | 13.2 | 27.8 |
| CC(C)[C@@]12C[C@@H](OC(=O)[C@H]3CO3)[C@@](C)(O1)[C@@H]1CC[C@@H](C)[C@H]1[C@@H]2OC(=O)/C=C/c1ccccc1 | 23.2 | > 65.1 | 9.46 | > 100 | 13.4 | 44.5 | 12.9 | 38.6 | 0.799 | 35.9 | 17.5 | 43.3 | 11.9 | 41.2 | 2.72 | 29.7 | 33.9 | > 100 | 22.9 | > 80.6 |
| COc1cc2c(cc1OCCOS(C)(=O)=O)N=C[C@@H]1CCCN1C2=O |  | > 100 | 18.5 | 36.5 |  | 55.9 | 16.5 | 39.3 | 13.5 | 26.7 | 18.6 | 47.2 |  | > 100 |  | > 100 | 18.1 | 33.2 | 17.1 | 31.7 |
| COC(=O)c1ccc2c(c1)nc(-c1cc3ccccc3[nH]c1=O)n2-c1cc(C(C)(C)C)[nH]n1 |  |  | 1.74 | > 100 | 2.17 | > 100 | 4.13 | > 100 | 2.97 | > 100 | > 20.3 | > 100 | > 23.7 | > 100 | 5.42 | 41.5 | 40 | > 74.7 | 0.987 | > 100 |
| COc1cc(C(=O)/C=C/c2cc(C(=O)c3cc(OC)c(OC)c(OC)c3)ccc2OC)ccc1N |  |  | 0.661 | 2.03 | 1.48 | 6.82 | 0.713 | > 100 | 0.388 | 2.51 | 1.53 | 3.98 | 1.62 | 4.92 | 1.16 | 4.35 | 3.61 | 18 | 1.02 | 2.22 |
| COc1cc(NCCCCN=C(N)NC(N)=NC(C)C)c2ncccc2c1 | 0.987 | 4.46 | 2.26 | 11.1 | 3.47 | 10.9 | 1.94 | 17.8 | > 100 | > 100 | 8.14 | 22.2 | 5.21 | 28.5 | 4.21 | 17.3 | 10.8 | 43.3 | 5.65 | 21.1 |
| O=C(OCc1ccccc1)N1CCN(/[N+]([O-])=N/Oc2ccc([N+](=O)[O-])cc2[N+](=O)[O-])CC1 | 4.35 | 18.6 | 2.15 | 7.55 | 18.8 | 57.3 | 3.58 | 9.48 | 5.25 | > 100 | 2.81 | 7.11 | 11.5 | 30.1 | 15.6 | 32.7 | 17.6 | 33.4 | 4.85 | 27.1 |
| NC(=NCCCOc1ccc(Cl)cc1)Nc1ccc(Cl)cc1 | 1.17 | 2.75 | 1.61 | 3.24 | 1.88 | 4.58 | 1.97 | 4.56 | 3.03 | 9.92 | 1.83 | 3.72 | 2.75 | 10.9 | 0.725 | 11.8 | 1.75 | 3.89 | 2.65 | 8.36 |
| C/C(=N\NC(=O)c1ccncc1)c1ccc2ccccc2c1O |  | 11.5 |  | 10.5 |  | 10.3 |  | > 91 |  | > 54.3 |  | 23.2 |  | 40.9 |  | > 43.8 |  | > 100 |  | > 62.2 |
| Cc1nc2sccn2c(=O)c1CCN1CCC(=C(c2ccc(F)cc2)c2ccc(F)cc2)CC1 | 7.69 | 24.1 | 5.36 | 20.3 | 5.92 | 26.5 | 15.2 | 31.9 | 13.8 | 32.9 | 15 | 28.9 | 14.5 | 29.3 | 14.5 | 28.7 | 13.9 | 27.6 | 10.5 | 23.7 |
| N#Cc1c(-c2ccc(Cl)cc2)n(O)c2ccccc12 | 13.4 | 30.7 | 2.29 | 8.69 | 1.76 | 5.69 | 1.51 | 4.38 | 1.43 | 4.2 | 2.58 | 9.83 | 3.07 | > 100 | 1.21 | 4.44 | 3.64 | 9.16 | 1.9 | 7.06 |
| O=C1C(Br)=CC2(C=C1Br)CCN=c1c2c(O)c2nc3ccccc3c3ccnc1c23 | 1.05 | 3.03 | 0.674 | 6.15 | 2.07 | 5.59 | 3.59 | 12.1 | 2.04 | 29.2 | 1.55 | 6.11 | 1.54 | 5.92 |  |  | 3.47 | 10.3 | 1.67 | 7.04 |
| O=C(O)C1C(C(=O)Nc2ccc3c(c2)Cc2ccccc2-3)C2(Cl)C(Cl)=C(Cl)C1(Cl)C2(Cl)Cl (stereo unspecified) |  | 31.4 |  | 38.1 |  | 55.8 |  | 41.6 |  | > 100 |  | 28.9 |  | > 100 |  | 91.8 |  | 68.1 |  | 29.7 |
| COc1ccc(C(=O)c2ccc(OC)c(OC)c2OC)cc1 | 1.14 | 3.13 | 2.19 | > 100 | 0.464 | > 100 | 3.63 | > 100 | 0.693 | 7.8 | 1.79 | 8.2 | 8.33 | > 100 | 1.76 | > 100 | 2.85 | > 100 | 0.725 | > 100 |
| CC(C)(C)[Si](C)(C)OCC1OC(n2cnc3c(NC(=O)c4ccccc4)ncnc32)CC1O (stereo unspecified) |  | 33.1 |  | 70.5 |  | 49.2 |  | 55.7 |  | 98.7 |  | 41 |  | > 100 |  | 60.3 |  | > 100 |  | 51.6 |
| C1CCN(CCC2CCCCN2)CC1 (stereo unspecified) |  | > 100 |  | > 100 |  | > 100 |  | > 100 |  | > 100 |  | > 100 |  | > 100 |  | > 100 |  | > 100 |  | > 100 |
| CC(=O)c1ccc(NC(=O)CSc2nnc(-c3cc(-c4ccc(C)cc4)nc4ccccc34)o2)cc1 | 6.54 | > 100 | 2.25 | 6.1 | > 100 | > 100 | 2.3 | 5.47 | 3.14 | > 100 | 1.8 | 3.92 | 2.15 | 5.45 | 1.77 | 3.57 | 1.99 | 4.89 | 1.97 | 3.92 |
| CCCCCCCCCCCCCCCCCC1=NCCN1CS(=O)(=O)O | 5.07 | 18.5 | 10.4 | 30.3 | 14.3 | 39.9 | 9.34 | 23.7 | 16.1 | 35.3 | 19.4 | 46.8 | 12.8 | 28.9 | 17.2 | 44.9 | 18.6 | 35.4 | 9.54 | 29 |
| Cc1ccc(C2NC(=S)NC3=C2CCOc2c3ccc3ccccc23)cc1 (stereo unspecified) | 9.64 | > 100 | > 100 | > 100 | 5.86 | > 100 | 26.3 | > 100 | 96.5 | > 100 | > 100 | > 100 | > 100 | > 100 | > 100 | > 100 | > 100 | > 100 | > 100 | > 100 |
| COc1ccccc1-n1c(-c2cc(O)ccc2C)cn2c3c(=O)[nH]c(=O)n(C)c3nc12 | 18.2 | 48 | 21.1 | > 100 | > 100 | > 100 | 3.06 | > 100 | > 100 | > 100 | 8.86 | > 100 | 4.85 | > 100 | 0.129 | 1.12 | 13.3 | 48.7 | 22.2 | > 100 |
| CN(C)c1ccc(C(=C2C=CC(=[N+](C)C)C=C2)c2ccc(N(C)C)cc2)cc1 (tested in a mixture with another compound) | 0.0232 | 0.0519 | 0.039 | 1.02 | 0.125 | 0.677 | 0.205 | 1.03 | 0.912 |  | 0.0643 | 0.748 |  |  | 0.0724 | 0.54 | 0.0394 | 0.321 |  | 1.34 |
